Test results from US12331343B2, “FAMIN assay methods” (Cambridge Enterprise Limited, priority 2018, dated 2025).

Tests used:
recombinant human FAMIN [1] = molecular target: T1, recombinant human FAMIN (Homo sapiens, UniProt Q8IV20); assay: adenosine deaminase activity of FAMIN (adenosine to inosine, LC-MS); format: biochemical; settings: 10 μg recombinant FAMIN, 10 μM adenosine in PBS, 1 h at 37° C. (FIG. 5A)
T1 construct: twin Strep-tag (followed by short linker and TEV cleavage site) (N, cleaved yes); made in house; host or cells: HEK293T
T1 sequence (Q8IV20 1-430): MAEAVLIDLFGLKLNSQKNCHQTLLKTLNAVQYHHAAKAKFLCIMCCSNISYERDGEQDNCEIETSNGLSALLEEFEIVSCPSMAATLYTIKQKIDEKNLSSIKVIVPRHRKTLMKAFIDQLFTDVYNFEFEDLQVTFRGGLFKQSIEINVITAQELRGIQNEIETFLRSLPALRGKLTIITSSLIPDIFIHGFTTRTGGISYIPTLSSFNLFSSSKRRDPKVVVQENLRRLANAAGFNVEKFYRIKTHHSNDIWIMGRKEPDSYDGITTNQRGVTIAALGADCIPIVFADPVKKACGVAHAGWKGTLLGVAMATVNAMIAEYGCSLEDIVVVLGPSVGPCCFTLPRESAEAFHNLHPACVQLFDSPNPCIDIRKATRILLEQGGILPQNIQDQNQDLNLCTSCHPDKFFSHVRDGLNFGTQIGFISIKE

recombinant human FAMIN [2] = molecular target: T1, recombinant human FAMIN; assay: adenosine phosphorylase activity of FAMIN (adenosine to adenine and ribose-1-phosphate, LC-MS); format: biochemical; settings: 10 μg recombinant FAMIN, 10 μM adenosine in PBS, 1 h at 37° C. (FIG. 5B, 5C)
Experimental: (§1) FIGS. 5B and 5C show levels of adenine and ribose-1-phosphate ([…]) in the reaction described in FIG. 5A. […] For enzyme kinetic assays a further chromatographic approach was used to allow for analysis of all substrates and products using a single assay. A Waters BEH C8 column was used (100×2.1 mm, 1.7 μm) with a weak mobile phase (A) of aqueous 10 mM ammonium acetate with 0.1% ammonia and a strong mobile phase (B) of acetonitrile. For gradient elution mobile phase B was held at 0% for 1.6 min, followed by a linear gradient to 30% B over 4.0 minutes, a further increase to 90% over 1 min, and a hold at 90% B for 1 min, with re-equilibration for 1.5 minutes giving a total run time of 6.5 minutes. The flow rate was 0.5 mL/min and the injection volume was 2 μL. The needle wash used was 4:1 water:acetonitrile. Putative enzymatic function of recombinant human strep-tagged FAMIN was investigated against aqueous HepG2 metabolite extracts (dried, Folch extracted from 5×10^6 cells) or nucleoside substrates at indicated concentrations and detected using HPLC-MS as described above. Unless otherwise indicated in the figure legends, HEK293T cell-expressed protein was used for all assays. The reaction mixture (final volume 100 μL) consisted of 10 μg of recombinant protein and 10 μM nucleoside substrate in Dulbecco's PBS (Thermo Fisher), pH 7.4 unless otherwise indicated. The samples were incubated at 37° C. for 1 h and then quenched with ×5 volume of ice-cold methanol. Samples were centrifuged at 21,000 g for 5 min transferred to fresh tubes and then dried down prior to analysis as described above.

recombinant human FAMIN [3] = molecular target: T1, recombinant human FAMIN; assay: specificity of FAMIN activity towards purine and pyrimidine nucleosides (substrate consumption, LC-MS); format: biochemical; settings: pure substrate with 10 μg recombinant FAMIN in 100 μl PBS, pH 7.4, 1 h at 37° C. (FIG. 2A, 2N, 2R, 2S)
From the text: Peak intensity of each extracted chromatogram per given m/z value normalised to maximum level of 100. Controls as indicated include reaction buffer (PBS), protein elution buffer as described in methods, recombinant FAMIN without substrate or protein buffer with adenosine substrate. […] FIGS. 2C, 2D, 2E, and 2F show representative chromatograms and mass spectra for (2C) adenine, (2D) hypoxanthine, (2E) inosine and (2F) ribose-1-phosphate. Upper panels: (2C-E) extracted positive ion chromatogram showing injection of (2C) 1 μM standard of adenine; (2D) 5 μM standard of hypoxanthine; (2E) 5 μM standard of inosine on a BEH C8 column; (2F) extracted negative ion chromatogram showing injection of a 5 μg/mL standard of ribose-1-phosphate on a BEH amide HILIC column. All measurements performed using the Q Exactive Orbitrap and extracted at m/z values of (2C) adenine [M+H]^+: 136.0617, (2D) hypoxanthine [M+H]^+: 137.0457, (2E) inosine [M+H]^+: 269.0877 and (2F) ribose-1-phosphate [M−H]^−: 229.0119 at a tolerance of 2 ppm. Middle panels: Corresponding extracted chromatograms of a representative sample (10 μg recombinant FAMIN^254I incubated with 10 μM adenosine for 1 h in 100 μl phosphate-buffered saline). Peaks at indicated retention times perfectly match those of adenine, hypoxanthine, inosine and ribose-1-phosphate standards. Lower panels: high resolution Fourier transform mass spectrometry (FTMS) mass spectrum of the representative FAMIN^254I incubated sample during the peaks putatively identified as (2C) adenine, (2D) hypoxanthine, (2E) inosine, or (2F) ribose-1-phosphate. Nominal m/z values of (2C) 136, (2D) 137, (2E) 269 and (2F) 229, respectively, were selectively targeted and fragmented using a higher-energy collision dissociation (HCD) collision voltage of 25 eV to give the fragments shown. […] Calculated from absolute levels of hypoxanthine and inosine quantified using ^13C2, ^15N1-hypoxanthine and ^15N4-inosine internal standards, and adenine levels estimated using adenine external standard. […] (SAM; S-adenosylmethionine; MTA, S-methyl-5′-thioadenosine; 2′-dA, 2′-deoxyadenosine; n=3, mean±S.E.M.). […] FIGS. 2P and 2Q show on the left FAMIN catalysed enzymatic reactions. On the right they show levels of guanine or hypoxanthine and ribose-1-phosphate in reactions containing 100 μM guanosine or inosine and recombinant FAMIN or buffer control in 100 μl after 1 h at 37° C. (n=3, mean±S.E.M.). […] On the lower panels adenine, 2′-deoxyinosine, hypoxanthine and deoxyribose-1-phosphate levels following incubation of 10 μg recombinant FAMIN or buffer control with 10 μM 2′deoxyadenosine for 1 h in 100 μl PBS (n=3 each, mean±S.E.M.). […] All metabolite level data in this figure measured as area under the chromatographic peak, normalised for total ion content. *P<0.05 (unpaired, two-tailed Student's t-test).
(§2) Putative enzymatic function of recombinant human strep-tagged FAMIN was investigated against aqueous HepG2 metabolite extracts (dried, Folch extracted from 5×10^6 cells) or nucleoside substrates at indicated concentrations and detected using HPLC-MS as described above. Unless otherwise indicated in the figure legends, HEK293T cell-expressed protein was used for all assays. The reaction mixture (final volume 100 μL) consisted of 10 μg of recombinant protein and 10 μM nucleoside substrate in Dulbecco's PBS (Thermo Fisher), pH 7.4 unless otherwise indicated. The samples were incubated at 37° C. for 1 h and then quenched with ×5 volume of ice-cold methanol. Samples were centrifuged at 21,000 g for 5 min transferred to fresh tubes and then dried down prior to analysis as described above.

recombinant human FAMIN [4] = molecular target: T1, recombinant human FAMIN; assay: purine nucleoside phosphorylase activity of FAMIN (inosine to hypoxanthine and ribose-1-phosphate, LC-MS); format: biochemical; settings: 10 μg recombinant FAMIN, 10 μM inosine in PBS, 1 h at 37° C. (FIG. 5D, 5E)
Experimental: as §1, with “The samples were incubated at 37° C. for 1 h and then quenched with ×5 volume of ice-cold methanol. Samples were centrifuged at 21,000 g for 5 min transferred to fresh tubes and then dried down prior to analysis as described above.” left out

[5] = substrate: Nc1ncnc2c1ncn2[C@@H]1O[C@H](CO)[C@@H](O)[C@H]1O; assay: adenosine deaminase activity of FAMIN (adenosine to inosine, LC-MS); format: biochemical, human; settings: other: 500 nM to 100 μM adenosine, inosine production, 1 h at 37° C., pH 7.4 (FIG. 3A)
[6] = substrate: Nc1ncnc2c1ncn2[C@@H]1O[C@H](CO)[C@@H](O)[C@H]1O; assay: adenosine phosphorylase activity of FAMIN (adenosine to adenine and ribose-1-phosphate, LC-MS); format: biochemical, human; settings: other: 500 nM to 100 μM adenosine, adenine production, 1 h at 37° C., pH 7.4 (FIG. 3A)
Experimental: as §1, with “The samples were incubated at 37° C. for 1 h and then quenched with ×5 volume of ice-cold methanol. Samples were centrifuged at 21,000 g for 5 min transferred to fresh tubes and then dried down prior to analysis as described above.” left out

[7] = substrate: OC[C@H]1O[C@@H](n2cnc3c(O)ncnc32)[C@H](O)[C@@H]1O; assay: purine nucleoside phosphorylase activity of FAMIN (inosine to hypoxanthine and ribose-1-phosphate, LC-MS); format: biochemical, human; settings: other: 500 nM to 100 μM inosine, hypoxanthine production, 1 h at 37° C., pH 7.4 (FIG. 3A)
Experimental: as §1, with “The samples were incubated at 37° C. for 1 h and then quenched with ×5 volume of ice-cold methanol. Samples were centrifuged at 21,000 g for 5 min transferred to fresh tubes and then dried down prior to analysis as described above.” left out

[8] = substrate: CSC[C@H]1O[C@@H](n2cnc3c(N)ncnc32)[C@H](O)[C@@H]1O; assay: S-methyl-5'-thioadenosine phosphorylase activity of FAMIN (MTA to adenine, LC-MS); format: biochemical, human; settings: other: 500 nM to 100 μM MTA, adenine production, 1 h at 37° C., pH 7.4 (FIG. 3A)
Experimental: Activity measured as inosine, hypoxanthine and adenine production following incubation with protein for 1 h at 37° C. at pH 7.4.
For enzyme kinetic assays a further chromatographic approach was used to allow for analysis of all substrates and products using a single assay. A Waters BEH C8 column was used (100×2.1 mm, 1.7 μm) with a weak mobile phase (A) of aqueous 10 mM ammonium acetate with 0.1% ammonia and a strong mobile phase (B) of acetonitrile. For gradient elution mobile phase B was held at 0% for 1.6 min, followed by a linear gradient to 30% B over 4.0 minutes, a further increase to 90% over 1 min, and a hold at 90% B for 1 min, with re-equilibration for 1.5 minutes giving a total run time of 6.5 minutes. The flow rate was 0.5 mL/min and the injection volume was 2 μL. The needle wash used was 4:1 water:acetonitrile.
as §2, with “The samples were incubated at 37° C. for 1 h and then quenched with ×5 volume of ice-cold methanol. Samples were centrifuged at 21,000 g for 5 min transferred to fresh tubes and then dried down prior to analysis as described above.” left out

CCCCCC[C@@H]([C@@H](C)O)n1cnc2c(N)ncnc21 (racemic) [EHNA, erythro-9-(2-hydroxy-3-nonyl)adenine]
effect on adenosine deaminase activity of FAMIN (levels of inosine) (recombinant human FAMIN [1]): inhibited
effect on FAMIN's adenosine phosphorylase activity (levels of adenine and R-1-P from adenosine) (recombinant human FAMIN [2]): intact

C[S+](CC[C@H](N)C(=O)[O-])C[C@H]1O[C@@H](n2cnc3c(N)ncnc32)[C@H](O)[C@@H]1O (some centres unmarked) [SAM, S-adenosylmethionine]
metabolised by FAMIN as pure substrate (recombinant human FAMIN [3]): not

Nc1ccn([C@@H]2O[C@H](CO)[C@@H](O)[C@H]2O)c(=O)n1 [cytidine]
metabolised by FAMIN as pure substrate (recombinant human FAMIN [3]): No activity

CSC[C@H]1O[C@@H](n2cnc3c(N)ncnc32)[C@H](O)[C@@H]1O [MTA, S-methyl-5′-thioadenosine]
metabolised by FAMIN as pure substrate (recombinant human FAMIN [3]): metabolised

C[C@H]1O[C@@H](n2cnc3c(N)ncnc32)[C@H](O)[C@@H]1O [5′-deoxy-adenosine, 5′-deoxyadenosine]
metabolised by FAMIN as pure substrate (recombinant human FAMIN [3]): substrate of FAMIN

Nc1ncnc2c1ncn2[C@@H]1O[C@H](CO)[C@@H](O)[C@H]1O [adenosine]
metabolised by FAMIN as pure substrate (recombinant human FAMIN [3]): consumed

OC[C@H]1O[C@@H](n2cnc3c(O)ncnc32)[C@H](O)[C@@H]1O [inosine]
metabolised by FAMIN as pure substrate (recombinant human FAMIN [3]): metabolised

Nc1ncnc2c1ncn2[C@H]1C[C@H](O)[C@@H](CO)O1 [2′-deoxy-adenosine, 2′-deoxyadenosine]
metabolised by FAMIN as pure substrate (recombinant human FAMIN [3]): metabolised

OC[C@H]1O[C@@H](n2cnc3c2NC=NC[C@H]3O)C[C@@H]1O [pentostatin]
effect on FAMIN's adenosine phosphorylase activity (levels of adenine and R-1-P from adenosine) (recombinant human FAMIN [2]): intact

Nc1nc2c(ncn2[C@@H]2O[C@H](CO)[C@@H](O)[C@H]2O)c(=O)[nH]1 [guanosine]
metabolised by FAMIN as pure substrate (recombinant human FAMIN [3]): metabolised

Nc1nc2c(nc(N)n2[C@@H]2O[C@H](CO)[C@@H](O)[C@H]2O)c(=O)[nH]1 [8-aminoguanosine]
effect on FAMIN's adenosine phosphorylase activity (levels of adenine and R-1-P from adenosine) (recombinant human FAMIN [2]): did not affect
effect on FAMIN's purine nucleoside phosphorylase activity (generation of hypoxanthine and R-1-P from inosine) (recombinant human FAMIN [4]): inhibited

B1: recombinant human FAMIN (Homo sapiens) (protein)
chain: T1 sequence (Q8IV20 1-430)
notes: twin Strep-tag (followed by short linker and TEV cleavage site) (N, cleaved yes); made in house; host or cells: HEK293T
Km [5]: 11 µM
Km [6]: 36 µM
Km [7]: 41 µM
Km [8]: 1 µM
